System: activation of NF-κB by TNFα
Assay: NF-κB luciferase reporter assay (TNFα-stimulated NIH-3T3-KBFLuc cells)
Type: cell-based
Conditions: for Experiment 1 % of activity / Experiment 2 % of activity / Experiment 3 % of activity / Conclusions: Is inhibition of TNF activation of NF-κB observed?: cannabinoid 10 μM alone; for Experiment 1 % of activity / Experiment 2 % of activity / Experiment 3 % of activity: TNFα 30 ng/mL = 100%; for Conclusions: Is inhibition of TNF activation of NF-κB observed?: mean of three experiments
Protocol: The NF-kB pathway inhibition in response to treatment with the Cannabinoid and NHP either as single agents or in combination will be monitored using the Luciferase Reporter gene assay described in Del Prete et al, J. Nat. Prod.
For the anti-NF-κB activity stably transfected NIH-3T3-KBFLuc cells are treated with different concentration of NHP compounds for 30 minutes and then stimulated with TNF-α (30 ng/mL). After treatment, the cells are washed twice in phosphate-buffered saline and lysed in 25 mM Tris-phosphate pH 7.8, 8 mM MgCl2, 1 mM DTT, 1% Triton X-100, and 7% glycerol during 15 min at room temperature in a horizontal shaker. Luciferase activity in the supernatant is measured using a TriStar2 Berthold/LB942 multimode reader (Berthold Technologies) following the manufacturer's instructions of the luciferase assay kit (Promega, Madison, Wis., US). For NF-κB inhibition the RLU (relative light units) is calculated, and the results are normalized to 100% stimulation induced by induced by TNF-α (100% activation). The results are presented from three independent experiments.

Row | SMILES | Experiment 1 % of activity [%] | Experiment 2 % of activity [%] | Experiment 3 % of activity [%] | Conclusions: Is inhibition of TNF activation of NF-κB observed? | inhibition of NF-κB activity by the cannabinoid itself (10 μM, alone)
1 | CCCCCc1cc(O)c2c(c1)OC(C)(C)[C@@H]1CCC(C)=C[C@@H]21 [THC, tetrahydrocannabinol] | 102.5 | 97.8 | 98.5 | Negative (Only treatments that the mean of three consecutive independent experiments shows a positive result (activity ≤50%) are considered inhibitory of NF-κB activity) | –
2 | C=C(C)[C@@H]1CCC(C)=C[C@H]1c1c(O)cc(CCCCC)cc1O [CBD, cannabidiol] | 93.6 | 97.0 | 108.2 | Negative (Only treatments that the mean of three consecutive independent experiments shows a positive result (activity ≤50%) are considered inhibitory of NF-κB activity) | non-inhibitory

Source: patent US20210196670A1, “ORAL FORMULATIONS OF LAVENDER AND CANNABINOIDS” (EMERALD HEALTH THERAPEUTICS CANADA INC., priority 2018, published 2021)
